We go through one molecule from article PMC10381309 (Journal of Fungi, 2023).

The subject of assay [1] is Cladophialophora carrionii (CFP 00910). The conditions noted are these: C. carrionii; PDA; 7 days, 37 °C; albendazole at ½ MIC.
Description: (§1) At the end of the seven days of incubation at 37 °C, the plates were read visually. The aspect of the colonies supplemented with albendazole were compared to those of the positive melanin and inhibition melanin controls, to determine whether the color of the albendazole-supplemented cultures resembled the positive DHN-melanin or the melanin inhibition control. Pictures of the colonies were captured using a Canon EOS Rebel T7+ digital camera.
The subject of assay [2] is Exophiala heteromorpha (ATCC 28180). The conditions noted are these: E. heteromorpha; PDA; 7 days, 37 °C; albendazole at ½ MIC.
Description: as §1

Each structure is given as a SMILES string.

Regarding `CCCSc1ccc2nc(NC(=O)OC)[nH]c2c1` [Albendazole], the melanin production result in assay [1] and in assay [2] was “did not observe a decrease in melanin production” in each case.
